Usually pKa stands for the pH at which an ionisable group is half protonated. Read a low pKa as a group that gives up its proton readily. For `Cc1nc2c(OCc3ccccc3)cccn2c1N`, the pKa turned out to be 6.81.
Molecule `CS(=O)(=O)Nc1ccc(Nc2c3ccccc3nc3c(C(N)=O)cccc23)cc1` returned a pKa of 6.12.
The molecule `Cc1ccc(NS(=O)(=O)Cc2ccccc2)c(=O)n1CC(=O)NCc1ccc(C(=N)N)c(F)c1` returned a pKa of 9.2.
The same measure for `CCCS(=O)(=O)Nc1ccc(Nc2c3ccccc3nc3ccccc23)cc1`: 7.2; for `CCC12CCC(=O)C=C1c1c(cc(OCC(=O)O)c(Cl)c1Cl)C2` (configuration not stated): 3.6.
For `Cc1cnc(NCCc2ccccc2)c(=O)n1CC(=O)NCc1cnc(N)nc1`, the pKa is 3.9.
Molecule `CC(=O)N[C@@H](Cc1cc(F)cc(F)c1)[C@H](O)CNC1(c2cccc(C(C)(C)C)c2)CC1` had a pKa of 6.6.
With `Clc1ccccc1Nc1c2ccccc2nc2ccccc12` the figure was 6.55; with `Cc1ccc2c(Nc3ccc(NS(C)(=O)=O)cc3)c3ccccc3nc2c1`, 7.49; with `NC(=O)c1ccc(Nc2c3ccccc3nc3ccccc23)cc1`, 6.47.
With `C[C@H](CCC(=O)O)[C@H]1CC[C@H]2[C@@H]3[C@@H](O)C[C@@H]4C[C@H](O)CC[C@]4(C)[C@H]3CC[C@]12C`, the pKa stood at 5.08.
In turn, `CC(=O)N[C@@H](Cc1cc(F)cc(F)c1)[C@H](O)CNC1(c2cc(C(C)(C)C)ncn2)CCCCC1` had a pKa of 6.7.
Consider `CNC(=O)c1cccc2c(Nc3ccc(NS(C)(=O)=O)cc3OC)c3ccccc3nc12`, for which the pKa is 6.36.
With `CCc1ccc2c(Nc3ccc(NS(C)(=O)=O)cc3OC)c3ccccc3nc2c1` the figure was 7.65.
Turning to `CCOc1ccccc1Nc1c2ccccc2nc2ccccc12`, the pKa is 7.85.
Molecule `CN1C=CN(C2NC(C(Cl)(Cl)Cl)=CN2c2ccc(S(N)(=O)=O)cc2)C=C1` (configuration not stated) returned a pKa of 7.68.
`CNS(=O)(=O)Cc1ccc2[nH]cc(CCN(C)C)c2c1`: the pKa worked out at 9.5.
As for `CC(CN1c2ccccc2Sc2ccccc21)N(C)C` (configuration not stated), the pKa came to 9.1.
With `CCc1cccc2c3c([nH]c12)C(CC)(CC(=O)O)OCC3` (configuration not stated) the figure was 4.7; with `COc1ccnc(C[S+]([O-])c2nc3cc(OC(F)F)ccc3[n-]2)c1OC.[Na+]` (configuration not stated), 3.9.
With `Cc1ccn2c(CC#N)c(C)nc2c1OCc1ccccc1` the figure was 5.67; with `CS(=O)(=O)Nc1ccc(Nc2c3ccccc3nc3ccc(C(N)=O)cc23)cc1`, 6.34; with `Cc1ccc(C(=O)c2ccc(CC(=O)O)n2C)cc1`, 3.5.
The same measure for `CCCNC(=O)CN(CCN(CCN(CC(=O)O)CC(=O)O)CC(=O)O)CC(=O)O`: 1.8.
In the case of `Cc1ccc2nc3ccccc3c(Nc3ccc(NS(C)(=O)=O)cc3)c2c1`, the pKa amounted to 7.23.
On to `O=S(=O)(c1cccc(F)c1)c1ccc2c3c(oc2c1)C1(CCCOC1)NCC3` (configuration not stated), for which the pKa amounted to 7.5.
`Cc1cccc(C)c1N=C1NCCN1` had a pKa of 10.5.
As to `O=C(Nc1ccc(Nc2c3ccccc3nc3ccccc23)cc1)c1ccccc1`, the pKa was determined as 7.39.
The molecule `CN(C)CCN=C(O)c1cccc2cc3ccccc3nc12` showed a pKa of 3.54.
As to `COc1ccc(-c2nnc(C(=O)N3CC(Oc4ccc(CN5CCCC56COC6)cc4)C3)o2)cc1`, the pKa was 6.
`CS(=O)(=O)Nc1ccc(Nc2c3ccccc3nc3cc(Cl)ccc23)cc1` came in with a pKa of 6.57.
`FC1(F)CCNCC1` gave a pKa of 8.5.
The molecule `COc1cc(NS(C)(=O)=O)ccc1Nc1c2ccccc2nc2c(OC)cccc12` yielded a pKa of 7.39.
Molecule `Cc1nc2c(/C=C/c3ccccc3)cccn2c1C` registered a pKa of 7.2.
In turn, `CN(C)CCCNc1c2ccccc2nc2cccc([N+](=O)[O-])c12` displayed a pKa of 6.21.
`COc1ccc(C(CCCN)(c2ccccc2)c2ccccc2)cc1`: the pKa came out at 9.86.
`CCCOC(=O)CN(CCN(CCN(CC(=O)O)CC(=O)O)CC(=O)O)CC(=O)O` returned a pKa of 1.8.
`CCC1(CCC(C)C)C(=O)N=C(O)NC1=O` (configuration not stated) displayed a pKa of 7.8.
As to `NC(=O)CCc1ccc(Nc2c3ccccc3nc3ccccc23)cc1`, the pKa stood at 7.63.
`O=S1NC(CCc2ccccc2)=NO1` (configuration not stated): the pKa is 5.23.
`BP(=O)(OC[C@H]1O[C@@H](n2cnc3c(N)nc(SC)nc32)[C@H](O)[C@@H]1O)OP(=O)(O)C(Cl)(Cl)P(=O)(O)O` (some centres not stated) came in with a pKa of 7.
Turning to `CS(=O)(=O)Nc1ccc(Nc2c3ccccc3nc3cc([N+](=O)[O-])ccc23)cc1`, the pKa amounted to 5.52.
For the molecule `COc1cccc(S(=O)(=O)Nc2cccn(CC(=O)NCc3ccc(C(=N)N)cc3Cl)c2=O)c1`, the pKa is 9.4.
With `CN(C)CC1C2c3ccccc3C(c3ccccc32)C1CN(C)C` (configuration not stated) the figure was 9.19; with `COc1cc(NS(C)(=O)=O)ccc1Nc1c2ccccc2nc2cc(C(C)C)ccc12`, 7.66.
On to `CS(=O)(=O)Nc1ccc(Nc2c3ccccc3nc3cc(C#N)ccc23)cc1`, for which the pKa is 5.75.
With `O=C1CC2(CCCC2)CC(=O)N1CCCCN1CCN(c2ncccn2)CC1`, the pKa came to 7.8.
On to `c1nnn[nH]1`, for which the pKa is -3.
With `CCC(C)NCc1cccc(S(=O)(=O)c2csc(S(N)(=O)=O)c2)c1.Cl` (configuration not stated) the figure was 7.45; with `CN1CCN(CCCN2c3ccccc3Sc3ccc(Cl)cc32)CC1`, 8.1; with `Oc1cc(C2=CCNCC2)on1`, 9.4.
`Cc1nc(N)nc(C)c1CNC(=O)Cn1c(C)ccc(NS(=O)(=O)Cc2ccccc2)c1=O`: the pKa was found to be 4.7.
The molecule `CN(C)CCC=C1c2ccccc2C=Cc2ccccc21` displayed a pKa of 9.69.
The same measure for `Oc1cc(C2CCNCC2)on1`: 10.3; for `CNC(=O)COc1cccc2c(Nc3ccc(NS(C)(=O)=O)cc3OC)c3ccccc3nc12`: 7.35; for `CN(c1ccccc1Nc1c2ccccc2nc2ccccc12)S(C)(=O)=O`: 6.97.
With `CS(=O)(=O)Nc1ccc(Nc2c3ccccc3nc3ccc(N)cc23)cc1` the figure was 7.15; with `CC(C)(C)NCC(O)c1cc(O)cc(O)c1` (configuration not stated), 8.7.
The same measure for `CS(=O)(=O)Nc1ccc(Nc2c3ccccc3nc3ccccc23)c(Cl)c1`: 6.34.
As to `CCC1(c2ccccc2)C(=O)NC(=O)NC1=O`, the pKa is 7.5.
`Cc1c(-c2noc(-c3ccc(OC(C)C)c(C#N)c3)n2)cnc2c1CCN(C(CO)CO)C2` showed a pKa of 6.2.
With `O=C(O)CCc1ccc(Nc2c3ccccc3nc3ccccc23)cc1` the figure was 7.91; with `Cn1ccnc1F`, 2.3; with `CCC12CC3CC(CC(N)(C3)C1)C2`, 10.6.
`CCCCCCS(=O)(=O)Nc1ccc(Nc2c3ccccc3nc3ccccc23)cc1` came in with a pKa of 7.17.
The molecule `O=[PH](O)CCc1ccccc1` showed a pKa of 1.98.
Molecule `OB(O)C1=CCCS1` came in with a pKa of 7.16.
`c1ccc(NC2=NCCN2)cc1` gave a pKa of 10.1.
In turn, `CCn1c(=O)c2nc(-c3ccc(S(=O)(=O)NCCN(C)C)cc3)[nH]c2n(CC)c1=O` came in with a pKa of 8.
`Cc1cnc(NCCc2ccccc2)c(=O)n1CC(=O)NCc1ccc(C(=N)NO)s1`: the pKa amounted to 4.1.
Turning to `Cc1nc(C)nc(N2C[C@@H](C)N(c3ccnc([C@@H](C)O)n3)[C@@H](C)C2)n1`, the pKa was 4.8.
`CN1C=CC(C2NC(C(Cl)(Cl)Cl)=CN2c2ccc(S(N)(=O)=O)cc2)C=C1` (configuration not stated) displayed a pKa of 7.89.
With `CCS(=O)(=O)c1nc(S(=O)(=O)c2ccc(Cl)cc2)c(N2CCc3ccccc3C2)s1`, the pKa was -8.66.
For the molecule `CS(=O)(=O)Nc1ccc(Nc2c3ccccc3nc3c(Cl)cccc23)cc1`, the pKa stood at 5.92.
The same measure for `CCOC(=O)C1(c2ccccc2)CCN(C)CC1`: 8.7.
Regarding `COC(=O)[C@H]1[C@H]2C[C@@H]3c4[nH]c5cc(OC)ccc5c4CCN3C[C@H]2C[C@@H](OC(=O)c2cc(OC)c(OC)c(OC)c2)[C@@H]1OC`, the pKa was determined as 7.25.
`Cl.Fc1ccc2c(c1)N(CCCN1CCOCC1)c1cc(F)ccc1CC2` gave a pKa of 7.6.
With `COc1cc(NS(C)(=O)=O)ccc1Nc1c2ccccc2nc2c(OCCO)cccc12`, the pKa is 7.36.
Turning to `Cc1ccc(S(=O)(=O)c2nc(N3CCc4ccccc4C3)sc2Cl)cc1`, the pKa is -3.78.
`Clc1ncc[nH]1`: the pKa is 3.55.
For the molecule `NC(=O)Cc1ccc(Nc2c3ccccc3nc3ccccc23)cc1`, the pKa came out at 7.43.
The same measure for `CC(NCCC(c1ccccc1)c1ccccc1)c1ccccc1` (configuration not stated): 9.04; for `NCCCF`: 9.9.
The molecule `Clc1cccc(Nc2c3ccccc3nc3ccccc23)c1` yielded a pKa of 6.76.
On to `Cc1cnc(NCC2(c3ccc(Cl)cc3)CCC2)c(=O)n1CC(=O)NCc1cnc(N)cn1`, for which the pKa was 2.7.
The molecule `COc1cc(Cl)c(N=C2NCCN2)c(Cl)c1` registered a pKa of 8.57.
With `O=c1[nH]c(=O)n([C@H]2C[C@H](O)[C@@H](CO)O2)cc1I` the figure was 8.2.
The same measure for `CNCc1cn(S(=O)(=O)c2cccnc2)c(-c2cccnc2F)c1F`: 8.54; for `Cc1cnc(NCCc2ccccc2)c(=O)n1CC(=O)NC[C@H]1CN=C(N)NC1`: 14.
With `Cc1nc(N)ncc1CNC(=O)Cn1c(C)ccc(NS(=O)(=O)Cc2ccccc2)c1=O` the figure was 4.2; with `CCOC(=O)c1ccc(N)cc1`, 2.5.
For the molecule `N[C@@H](CCC(=O)N[C@@H](CS)C(=O)NCC(=O)O)C(=O)O`, the pKa worked out at 8.7.
Turning to `Cc1ccc(NS(=O)(=O)Cc2ccccc2)c(=O)n1CC(=O)NCc1cnc(N)nc1`, the pKa came to 3.9.
`CN(C)CCNC(=O)c1cccc2ccc(-c3ccccc3)nc12` gave a pKa of 2.75.
The molecule `COc1cc(NS(C)(=O)=O)ccc1Nc1c2ccccc2nc2c(OCCCC(N)=O)cccc12` showed a pKa of 7.36.
The same measure for `Cc1ccc(NS(=O)(=O)Cc2ccccc2)c(=O)n1CC(=O)NC[C@@H]1CNC(N)=N[C@@H]1C`: 14; for `O=C(O)c1coc2ccccc2c1=O`: 8.85.
The molecule `Cc1nc(N)ncc1CNC(=O)Cn1c(C)ccc(NS(=O)(=O)Cc2cccc3c2OCCO3)c1=O` returned a pKa of 4.2.
Take `CS(=O)(=O)Nc1ccc(Nc2c3ccccc3nc3cccc(Cl)c23)cc1`: the pKa worked out at 5.86.
The molecule `COc1cc(NS(C)(=O)=O)ccc1Nc1c2ccccc2nc2ccccc12` showed a pKa of 7.43.
With `CN(C)CCCNc1ccnc2cccc([N+](=O)[O-])c12` the figure was 6.39.
Molecule `Fc1ccccc1Nc1c2ccccc2nc2ccccc12` displayed a pKa of 6.84.

Source of the values: the pKa sets of Baltruschat and Czodrowski (2020).
